# Results taken from US20250319032A1, “PHARMACEUTICAL COMPOSITIONS OF RIBOCICLIB” (Novartis AG, priority 2024, published 2025).
# Experiment: Nitrite content (ion chromatography; LC-FLD with DAN derivatisation; Griess test) in drug substance, intermediates, reagents, solvents, filters, excipients
# Type: physicochemical
# Design: Nitrite content T0 (enhanced method): unit: ppm
# Conditions: IPA used in resin loading experiments
# Excerpt: The method of testing for the presence and/or total amount of nitrites that is used in the methods of the invention may be any method which allows for the detection and/or quantitation of nitrites in a composition. For example, the method may be the Griess test. The Griess test allows for the detection and analysis of nitrite by the formation of a red-pink colour upon treatment of a nitrite-containing sample with the Griess reagent. The Griess reagent consists of two components in an acidic solution: an aniline derivative and a coupling agent. The most common arrangements use sulfanilamide and N-(1-naphthyl)ethylenediamine. For example 0.2% N-(1-naphthyl)ethylenediamine dihydrochloride and 2% sulfanilamide in 5% phosphoric acid may be used as a Griess reagent. Other aniline derivatives that may be used in a Griess reagent include sulfanilic acid, nitroaniline, and p-aminoacetophenone.
# The Griess test involves two subsequent reactions, as shown in the scheme below. When the aniline derivative (e.g., sulfanilamide) is added, the nitrite ion reacts with it in the Griess diazotization reaction to form a diazonium salt, which then reacts with N-(1-naphthyl)ethylenediamine in an azo-coupling reaction, forming a pink-red azo-dye. Using a spectrophotometer, the nitrite concentration can then be quantitatively detected.
# Additionally purified water; e.g. Milli Q • 2.
# • 10 mM KH2PO4 Weigh accurately about 1.361 g of KH2PO4 into a 1 L volumetric flask, dissolve it in approximately 950 mL of additionally purified water and adjust the pH to 8.0 (with 2.7 M NaOH). Make up to the mark with additionally purified water. • 0.62 M HCl Add a few millilitres (e.g. 20 mL) of additionally purified water to a 200 mL volumetric flask, add 10.280 mL of concentrated HCl, mix and make up to the mark with additionally purified water. • 2.7 M NaOH Weigh accurately about 1.092 g of NaOH pellets into a 10 mL volumetric flask and dissolve it in additionally purified water. Cool to room temperature and make up to the mark with the same solvent. • Reagent DAN Weigh accurately about 5 mg of 2,3-diaminophthalene into a 100 mL volumetric flask and dissolve it with the solvent (methanol/water 1:1 (v/v)). Dilute up to the mark and ensure visual full dissolution. Use an amberglass flask. • Mobile phase A Mix 950 mL of 10 mM KH2PO4 solution (pH=8) and add 50 mL methanol. • Mobile phase B Methanol. • Solvent Methanol/water 1:1 (v/v), e.g. mix 2000 mL of additionally purified water and 2000 mL methanol.
# • Instrument: HPLC with FLR detector; e.g. Waters Arc or equivalent • Column: C18 50×4.6 mm, 2.5 μm, e.g. XBridge C18 2.5 μm, 4.650 mm or equivalent
# • Notes It is recommended to wear additional protective equipment (face mask and gloves) during weighing. • It is recommended to wash the column with 50% methanol after the analysis (example of preparation: mix 500 mL methanol and 500 m1 of additionally purified water). • It is recommended to rinse the injector with solvent after each injection. • All glassware and tools should be rinsed with additionally purified water before use. It is not recommended to leave the solutions open for a longer time before measurement. • Blank solution 1 Transfer 1 mL of solvent into a HPLC vial and perform derivatization as described below. • Blank solution 2 Transfer 10 mL of solvent into a single use glass vial and mix it on a magnetic stirrer for 30 min. Transfer the solution into a 5 mL centrifuge tube and centrifuge for 10 min at 12000 rpm. […] Fill up to the mark with solvent and mix. • (Cnitrite≈0.0005 mg/mL) • Comparison solution Transfer 10 mL of nitrite stock solution into a 500 mL volumetric flask. • (2 parallels) Fill up to the mark with solvent and mix. • Transfer 1 mL solution into a HPLC vial and perform the derivatization as described below. • (Cnitrite≈100 ppb) • Sample solution Accurately weigh about 1000 mg of the sample into a glass vial for single use and add 10 mL of solvent.
row,Nitrite in IPA [ppb],SMILES
1,1.6,CC(C)O [IPA]

# Same assay, conditions: drug substance manufactured at Menges, T0
row,Nitrite content T0 (enhanced method),SMILES
1,<0.1,CN(C)C(=O)c1cc2cnc(Nc3ccc(N4CCNCC4)cn3)nc2n1C1CCCC1.O=C(O)CCC(=O)O [Batch B711867]
2,0.5,CN(C)C(=O)c1cc2cnc(Nc3ccc(N4CCNCC4)cn3)nc2n1C1CCCC1.O=C(O)CCC(=O)O [Batch B695104]

# Same assay, conditions: ribociclib base (LEE011 B10), ion chromatography
row,Nitrite [ppm] LOD (1 ppm),SMILES
1,<LOD,CN(C)C(=O)c1cc2cnc(Nc3ccc(N4CCNCC4)cn3)nc2n1C1CCCC1 [Batch B685591]

# Same assay, conditions: ribociclib succinate drug substance batches at release
SMILES,Nitrite NAP method (ppm),Nitrite NAT enhanced sample prep. (ppm)
CN(C)C(=O)c1cc2cnc(Nc3ccc(N4CCNCC4)cn3)nc2n1C1CCCC1.O=C(O)CCC(=O)O [Batch B711867],0.1,0.1
CN(C)C(=O)c1cc2cnc(Nc3ccc(N4CCNCC4)cn3)nc2n1C1CCCC1.O=C(O)CCC(=O)O [Batch B711440],0.1,0.9
CN(C)C(=O)c1cc2cnc(Nc3ccc(N4CCNCC4)cn3)nc2n1C1CCCC1.O=C(O)CCC(=O)O [Batch B709049],0.2,<0.1
CN(C)C(=O)c1cc2cnc(Nc3ccc(N4CCNCC4)cn3)nc2n1C1CCCC1.O=C(O)CCC(=O)O [Batch B711866],0.2,<0.1
CN(C)C(=O)c1cc2cnc(Nc3ccc(N4CCNCC4)cn3)nc2n1C1CCCC1.O=C(O)CCC(=O)O [Batch B696588],0.2,0.1
CN(C)C(=O)c1cc2cnc(Nc3ccc(N4CCNCC4)cn3)nc2n1C1CCCC1.O=C(O)CCC(=O)O [Batch B709941],0.1,0.1
CN(C)C(=O)c1cc2cnc(Nc3ccc(N4CCNCC4)cn3)nc2n1C1CCCC1.O=C(O)CCC(=O)O [Batch B695104],0.3,0.5
CN(C)C(=O)c1cc2cnc(Nc3ccc(N4CCNCC4)cn3)nc2n1C1CCCC1.O=C(O)CCC(=O)O [Batch B698296],0.4,0.3

# Results, then the compound that gave them:
Nitrite NAP method (ppm),Nitrite NAT enhanced sample prep. (ppm),SMILES
0.2,<0.1,CN(C)C(=O)c1cc2cnc(Nc3ccc(N4CCNCC4)cn3)nc2n1C1CCCC1.O=C(O)CCC(=O)O [Batch B709940]
0.3,0.4,CN(C)C(=O)c1cc2cnc(Nc3ccc(N4CCNCC4)cn3)nc2n1C1CCCC1.O=C(O)CCC(=O)O [Batch B698295]
0.2,<0.1,CN(C)C(=O)c1cc2cnc(Nc3ccc(N4CCNCC4)cn3)nc2n1C1CCCC1.O=C(O)CCC(=O)O [Batch B696589]
0.2,0.1,CN(C)C(=O)c1cc2cnc(Nc3ccc(N4CCNCC4)cn3)nc2n1C1CCCC1.O=C(O)CCC(=O)O [Batch B707657]
0.2,0.1,CN(C)C(=O)c1cc2cnc(Nc3ccc(N4CCNCC4)cn3)nc2n1C1CCCC1.O=C(O)CCC(=O)O [Batch B710668]
0.2,1.6,CN(C)C(=O)c1cc2cnc(Nc3ccc(N4CCNCC4)cn3)nc2n1C1CCCC1.O=C(O)CCC(=O)O [Batch B710665]

# Same assay, conditions: ribociclib succinate drug substance batches at release; manufacturer Raybow - DS04
row,SMILES,Nitrite NAT enhanced sample prep. (ppm)
1,CN(C)C(=O)c1cc2cnc(Nc3ccc(N4CCNCC4)cn3)nc2n1C1CCCC1.O=C(O)CCC(=O)O [RIBOCICLIB SUCCINATE 833268A196],1.1
2,CN(C)C(=O)c1cc2cnc(Nc3ccc(N4CCNCC4)cn3)nc2n1C1CCCC1.O=C(O)CCC(=O)O [RIBOCICLIB SUCCINATE 833268A212],<0.1

# More lines, now with the values ahead:
row,Nitrite NAT enhanced sample prep. (ppm),SMILES
1,<0.1,CN(C)C(=O)c1cc2cnc(Nc3ccc(N4CCNCC4)cn3)nc2n1C1CCCC1.O=C(O)CCC(=O)O [RIBOCICLIB SUCCINATE 833268R011]
2,0.1,CN(C)C(=O)c1cc2cnc(Nc3ccc(N4CCNCC4)cn3)nc2n1C1CCCC1.O=C(O)CCC(=O)O [RIBOCICLIB SUCCINATE 833268A198]

# Same assay, conditions: ribociclib succinate drug substance batches at release; manufacturer Raybow - DS05
row,Nitrite NAT enhanced sample prep. (ppm),SMILES
1,0.1,CN(C)C(=O)c1cc2cnc(Nc3ccc(N4CCNCC4)cn3)nc2n1C1CCCC1.O=C(O)CCC(=O)O [RIBOCICLIB SUCCINATE 833268A196]
2,0.1,CN(C)C(=O)c1cc2cnc(Nc3ccc(N4CCNCC4)cn3)nc2n1C1CCCC1.O=C(O)CCC(=O)O [RIBOCICLIB SUCCINATE 833268A198]
